Laboratory results: the NIST ThermoML archive (doi:10.1021/je700546r)
Values joined by “and” are separate entries in the source; they are usually repeats but may differ in a detail not shown here. Equal entries are not always repeated.

Assay: molar heat capacity at saturation pressure
Conditions: Crystal 3, Small (less than 1 g) adiabatic calorimetry

ON=C1CCCCC1 [cyclohexanone oxime]
Conditions | molar heat capacity
4.9 K | 0.339 J/K/mol
5.136 K | 0.3967 J/K/mol
5.378 K | 0.4649 J/K/mol
5.624 K | 0.5419 J/K/mol
5.878 K | 0.6278 J/K/mol
6.165 K | 0.7333 J/K/mol
6.485 K | 0.8621 J/K/mol
6.812 K | 1.006 J/K/mol
7.147 K | 1.167 J/K/mol
7.488 K | 1.338 J/K/mol
7.836 K | 1.53 J/K/mol
8.187 K | 1.735 J/K/mol
8.542 K | 1.956 J/K/mol
8.902 K | 2.19 J/K/mol
9.268 K | 2.438 J/K/mol
9.636 K | 2.708 J/K/mol
10 K | 2.981 J/K/mol
10.48 K | 3.361 J/K/mol
11.06 K | 3.83 J/K/mol
11.64 K | 4.325 J/K/mol
12.23 K | 4.854 J/K/mol
12.83 K | 5.408 J/K/mol
13.43 K | 5.992 J/K/mol
14.03 K | 6.572 J/K/mol
14.64 K | 7.153 J/K/mol
15.26 K | 7.796 J/K/mol
15.98 K | 8.601 J/K/mol
16.81 K | 9.497 J/K/mol
17.65 K | 10.37 J/K/mol
18.49 K | 11.28 J/K/mol
19.34 K | 12.18 J/K/mol
20.19 K | 13.08 J/K/mol
21.32 K | 14.35 J/K/mol
22.74 K | 15.89 J/K/mol
24.16 K | 17.46 J/K/mol
25.59 K | 19 J/K/mol
27.02 K | 20.5 J/K/mol
28.49 K | 22 J/K/mol
30.12 K | 23.63 J/K/mol
31.73 K | 25.22 J/K/mol
33.5 K | 26.88 J/K/mol
35.28 K | 28.48 J/K/mol
37.06 K | 30.01 J/K/mol
38.84 K | 31.47 J/K/mol
40.63 K | 32.89 J/K/mol
42.51 K | 34.38 J/K/mol
44.49 K | 35.9 J/K/mol
46.48 K | 37.34 J/K/mol
48.47 K | 38.76 J/K/mol
50.46 K | 40.11 J/K/mol
52.45 K | 41.42 J/K/mol
54.45 K | 42.64 J/K/mol
56.45 K | 43.84 J/K/mol
58.46 K | 45.02 J/K/mol
60.47 K | 46.16 J/K/mol
62.48 K | 47.28 J/K/mol
64.5 K | 48.37 J/K/mol
66.51 K | 49.44 J/K/mol
68.52 K | 50.51 J/K/mol
70.54 K | 51.55 J/K/mol
72.56 K | 52.59 J/K/mol
74.59 K | 53.59 J/K/mol
76.61 K | 54.6 J/K/mol
78.65 K | 55.6 J/K/mol
79.94 K | 56.26 J/K/mol
80.68 K | 56.58 J/K/mol
81.67 K | 57.04 J/K/mol
82.2 K | 57.24 J/K/mol
82.71 K | 57.54 J/K/mol
83.39 K | 57.84 J/K/mol
84.24 K | 58.2 J/K/mol
84.75 K | 58.47 J/K/mol
85.1 K | 58.59 J/K/mol
86.15 K | 59.05 J/K/mol
86.83 K | 59.4 J/K/mol
88.07 K | 59.96 J/K/mol
88.55 K | 60.2 J/K/mol
90 K | 60.85 J/K/mol
90.28 K | 61.01 J/K/mol
91.95 K | 61.75 J/K/mol
92.01 K | 61.8 J/K/mol
93.75 K | 62.62 J/K/mol
93.89 K | 62.67 J/K/mol
95.49 K | 63.42 J/K/mol
95.85 K | 63.56 J/K/mol
97.23 K | 64.21 J/K/mol
97.81 K | 64.45 J/K/mol
98.97 K | 65.03 J/K/mol
99.77 K | 65.37 J/K/mol
100.72 K | 65.83 J/K/mol
101.74 K | 66.25 J/K/mol
102.52 K | 66.6 J/K/mol
103.72 K | 67.14 J/K/mol
104.37 K | 67.44 J/K/mol
105.7 K | 68.04 J/K/mol
106.23 K | 68.29 J/K/mol
107.69 K | 68.92 J/K/mol
108.09 K | 69.08 J/K/mol
109.68 K | 69.81 J/K/mol
109.95 K | 69.92 J/K/mol
111.68 K | 70.69 J/K/mol
111.81 K | 70.76 J/K/mol
113.68 K | 71.57 J/K/mol and 71.56 J/K/mol
115.55 K | 72.37 J/K/mol
115.69 K | 72.45 J/K/mol
117.41 K | 73.2 J/K/mol
117.7 K | 73.35 J/K/mol
119.29 K | 74.03 J/K/mol
119.71 K | 74.22 J/K/mol
121.16 K | 74.85 J/K/mol
121.72 K | 75.08 J/K/mol
123.03 K | 75.63 J/K/mol
123.73 K | 75.98 J/K/mol
124.91 K | 76.46 J/K/mol
125.75 K | 76.86 J/K/mol
126.79 K | 77.29 J/K/mol
127.76 K | 77.72 J/K/mol
128.67 K | 78.11 J/K/mol
129.79 K | 78.6 J/K/mol
130.55 K | 78.91 J/K/mol
131.81 K | 79.49 J/K/mol
132.43 K | 79.75 J/K/mol
133.83 K | 80.38 J/K/mol
134.31 K | 80.58 J/K/mol
135.86 K | 81.28 J/K/mol
136.2 K | 81.42 J/K/mol
137.88 K | 82.16 J/K/mol
138.09 K | 82.25 J/K/mol
139.9 K | 83.05 J/K/mol
139.98 K | 83.08 J/K/mol
141.87 K | 83.93 J/K/mol
141.92 K | 83.95 J/K/mol
143.76 K | 84.77 J/K/mol
143.95 K | 84.85 J/K/mol
145.65 K | 85.62 J/K/mol
145.97 K | 85.73 J/K/mol
147.54 K | 86.49 J/K/mol
148 K | 86.67 J/K/mol
149.44 K | 87.35 J/K/mol
150.03 K | 87.59 J/K/mol
151.34 K | 88.17 J/K/mol
152.05 K | 88.52 J/K/mol
153.24 K | 89.05 J/K/mol
154.08 K | 89.42 J/K/mol
155.13 K | 89.89 J/K/mol
156.1 K | 90.34 J/K/mol
157.03 K | 90.77 J/K/mol
158.12 K | 91.27 J/K/mol
158.93 K | 91.65 J/K/mol
160.13 K | 92.24 J/K/mol
160.83 K | 92.53 J/K/mol
162.15 K | 93.18 J/K/mol
162.73 K | 93.45 J/K/mol
164.16 K | 94.14 J/K/mol
164.63 K | 94.35 J/K/mol
166.17 K | 95.08 J/K/mol
166.54 K | 95.25 J/K/mol
168.18 K | 96.07 J/K/mol
168.44 K | 96.2 J/K/mol
170.18 K | 97.05 J/K/mol
170.35 K | 97.13 J/K/mol
172.19 K | 98.05 J/K/mol
172.26 K | 98.07 J/K/mol
174.17 K | 99.06 J/K/mol
174.19 K | 99.05 J/K/mol
176.08 K | 100.02 J/K/mol
176.19 K | 100.08 J/K/mol
177.99 K | 101.03 J/K/mol
178.2 K | 101.13 J/K/mol
179.9 K | 102.04 J/K/mol
180.2 K | 102.17 J/K/mol
181.81 K | 103.07 J/K/mol
182.19 K | 103.23 J/K/mol
183.72 K | 104.11 J/K/mol
184.18 K | 104.31 J/K/mol
185.64 K | 105.14 J/K/mol
186.16 K | 105.44 J/K/mol
187.55 K | 106.25 J/K/mol
188.14 K | 106.57 J/K/mol
189.46 K | 107.37 J/K/mol
190.12 K | 107.71 J/K/mol
191.37 K | 108.48 J/K/mol
192.1 K | 108.92 J/K/mol
193.29 K | 109.62 J/K/mol
194.08 K | 110.15 J/K/mol
195.2 K | 110.84 J/K/mol
196.05 K | 111.36 J/K/mol
197.13 K | 112.05 J/K/mol
198.02 K | 112.6 J/K/mol
199.05 K | 113.28 J/K/mol
199.97 K | 113.87 J/K/mol
200.97 K | 114.62 J/K/mol
202 K | 115.31 J/K/mol
202.89 K | 116 J/K/mol
203.92 K | 116.79 J/K/mol
204.81 K | 117.51 J/K/mol
205.74 K | 118.31 J/K/mol
206.72 K | 119.13 J/K/mol
207.56 K | 119.91 J/K/mol
208.63 K | 120.93 J/K/mol
209.36 K | 121.66 J/K/mol
210.55 K | 122.71 J/K/mol
211.17 K | 123.38 J/K/mol
212.46 K | 124.68 J/K/mol
212.97 K | 125.27 J/K/mol
214.38 K | 126.63 J/K/mol
214.76 K | 127.11 J/K/mol
216.3 K | 128.63 J/K/mol
216.54 K | 128.94 J/K/mol
217 K | 129.41 J/K/mol
217.73 K | 130.26 J/K/mol
218.21 K | 130.69 J/K/mol
218.32 K | 130.87 J/K/mol
218.98 K | 131.5 J/K/mol
219.5 K | 132.12 J/K/mol
220.09 K | 132.7 J/K/mol
220.14 K | 132.72 J/K/mol
220.87 K | 133.52 J/K/mol
221.26 K | 133.99 J/K/mol
222.06 K | 134.69 J/K/mol
222.75 K | 135.43 J/K/mol
223.02 K | 135.78 J/K/mol
